Tested on: 953936-095-R-J2-PDC spheroids with HUVEC/MSC, viability
Assay: Anticancer human tumor 953936-095-R-J2-PDC patient-derived cervical squamous cell carcinoma cell line growth inhibition [PI3K]
Settings: for IC50: curve of first compound; for viability, T/C: stronger effect = lower value; active = viability on the fitted dose curve at most 10% of control; inactive = the rest
In short: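 Three cell types, namely tumor cells, endothelial cells and mesenchymal stem cells, formed each spheroid. Combinations with four PI3K inhibitors were screened at clinically achievable concentrations decreasing by half-log, and spheroid viability was recorded.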
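Also: spheroids exposed to compounds for seven days before read-out.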

CNC(=O)c1ccc(N2C(=S)N(c3ccc(C#N)c(C(F)(F)F)c3)C(=O)C2(C)C)cc1F + Cc1nc(NC(=O)N2CCCC2C(N)=O)sc1-c1ccnc(C(C)(C)C(F)(F)F)c1
inactive: viability, T/C (second compound 0.0316 µM, first compound 0.0316 µM) 85.4% | viability, T/C (second compound 0.0316 µM, first compound 0.1 µM) 92.7% | viability, T/C (second compound 0.0316 µM, first compound 0.316 µM) 108% | viability, T/C (second compound 0.0316 µM, first compound 1 µM) 105% | viability, T/C (second compound 0.0316 µM, first compound 3.16 µM) 83.5% | viability, T/C (second compound 0.0316 µM, first compound 10 µM) 79.7% | viability, T/C (second compound 0.1 µM, first compound 0.0316 µM) 81.2% | viability, T/C (second compound 0.1 µM, first compound 0.1 µM) 93% | viability, T/C (second compound 0.1 µM, first compound 0.316 µM) 78.3% | viability, T/C (second compound 0.1 µM, first compound 1 µM) 76.9% | viability, T/C (second compound 0.1 µM, first compound 3.16 µM) 74.7% | viability, T/C (second compound 0.1 µM, first compound 10 µM) 73.9% | viability, T/C (second compound 0.316 µM, first compound 0.0316 µM) 64.1% | viability, T/C (second compound 0.316 µM, first compound 0.1 µM) 65.9% | viability, T/C (second compound 0.316 µM, first compound 0.316 µM) 65.3% | viability, T/C (second compound 0.316 µM, first compound 1 µM) 59.9% | viability, T/C (second compound 0.316 µM, first compound 3.16 µM) 62.8% | viability, T/C (second compound 0.316 µM, first compound 10 µM) 54.3% | viability, T/C (second compound 1 µM, first compound 0.0316 µM) 54.1% | viability, T/C (second compound 1 µM, first compound 0.1 µM) 44.2% | viability, T/C (second compound 1 µM, first compound 0.316 µM) 44.3% | viability, T/C (second compound 1 µM, first compound 1 µM) 48.6% | viability, T/C (second compound 1 µM, first compound 3.16 µM) 41.4% | viability, T/C (second compound 1 µM, first compound 10 µM) 38.1% | viability, T/C (second compound 3.16 µM, first compound 0.0316 µM) 26.6% | viability, T/C (second compound 3.16 µM, first compound 0.1 µM) 29.8% | viability, T/C (second compound 3.16 µM, first compound 0.316 µM) 24.4% | viability, T/C (second compound 3.16 µM, first compound 1 µM) 25.5% | viability, T/C (second compound 3.16 µM, first compound 3.16 µM) 30% | viability, T/C (second compound 3.16 µM, first compound 10 µM) 24.8% | viability, T/C (second compound 10 µM, first compound 0.0316 µM) 12.2% | viability, T/C (second compound 10 µM, first compound 0.1 µM) 11.2% | viability, T/C (second compound 10 µM, first compound 0.316 µM) 12.1% | viability, T/C (second compound 10 µM, first compound 1 µM) 11% | viability, T/C (second compound 10 µM, first compound 3.16 µM) 11.6% | viability, T/C (second compound 10 µM, first compound 10 µM) 10.7%
> 10000 nM: IC50 (second compound 0.0316 µM) | IC50 (second compound 0.1 µM) | IC50 (second compound 0.316 µM)
< 31.6 nM: IC50 (second compound 3.16 µM) | IC50 (second compound 10 µM)
53 nM: IC50 (second compound 1 µM)

Cn1cnc2c(F)c(Nc3ccc(Br)cc3Cl)c(C(=O)NOCCO)cc21 + Cc1nc(NC(=O)N2CCCC2C(N)=O)sc1-c1ccnc(C(C)(C)C(F)(F)F)c1
308 nM: IC50 (second compound 0.1 µM)
active: viability, T/C (second compound 1 µM, first compound 3 µM) 7.18% | viability, T/C (second compound 3.16 µM, first compound 0.3 µM) 7.62% | viability, T/C (second compound 3.16 µM, first compound 0.949 µM) 5.36% | viability, T/C (second compound 3.16 µM, first compound 3 µM) 1.67% | viability, T/C (second compound 10 µM, first compound 0.00949 µM) 6.2% | viability, T/C (second compound 10 µM, first compound 0.03 µM) 5.44% | viability, T/C (second compound 10 µM, first compound 0.0949 µM) 4.18% | viability, T/C (second compound 10 µM, first compound 0.3 µM) 2.71% | viability, T/C (second compound 10 µM, first compound 0.949 µM) 1.25% | viability, T/C (second compound 10 µM, first compound 3 µM) 0.42%
inactive: viability, T/C (second compound 0.0316 µM, first compound 0.00949 µM) 85.7% | viability, T/C (second compound 0.0316 µM, first compound 0.03 µM) 87.1% | viability, T/C (second compound 0.0316 µM, first compound 0.0949 µM) 74.3% | viability, T/C (second compound 0.0316 µM, first compound 0.3 µM) 59.4% | viability, T/C (second compound 0.0316 µM, first compound 0.949 µM) 49.5% | viability, T/C (second compound 0.0316 µM, first compound 3 µM) 31.9% | viability, T/C (second compound 0.1 µM, first compound 0.00949 µM) 78.1% | viability, T/C (second compound 0.1 µM, first compound 0.03 µM) 70.1% | viability, T/C (second compound 0.1 µM, first compound 0.0949 µM) 52.7% | viability, T/C (second compound 0.1 µM, first compound 0.3 µM) 51.4% | viability, T/C (second compound 0.1 µM, first compound 0.949 µM) 47.4% | viability, T/C (second compound 0.1 µM, first compound 3 µM) 28.9% | viability, T/C (second compound 0.316 µM, first compound 0.00949 µM) 61.3% | viability, T/C (second compound 0.316 µM, first compound 0.03 µM) 50.8% | viability, T/C (second compound 0.316 µM, first compound 0.0949 µM) 43% | viability, T/C (second compound 0.316 µM, first compound 0.3 µM) 33.9% | viability, T/C (second compound 0.316 µM, first compound 0.949 µM) 26.1% | viability, T/C (second compound 0.316 µM, first compound 3 µM) 20.1% | viability, T/C (second compound 1 µM, first compound 0.00949 µM) 44% | viability, T/C (second compound 1 µM, first compound 0.03 µM) 35% | viability, T/C (second compound 1 µM, first compound 0.0949 µM) 24.9% | viability, T/C (second compound 1 µM, first compound 0.3 µM) 24.3% | viability, T/C (second compound 1 µM, first compound 0.949 µM) 12.1% | viability, T/C (second compound 3.16 µM, first compound 0.00949 µM) 21.1% | viability, T/C (second compound 3.16 µM, first compound 0.03 µM) 15.3% | viability, T/C (second compound 3.16 µM, first compound 0.0949 µM) 11.3%
< 9.49 nM: IC50 (second compound 1 µM) | IC50 (second compound 3.16 µM) | IC50 (second compound 10 µM)
748 nM: IC50 (second compound 0.0316 µM)
36.8 nM: IC50 (second compound 0.316 µM)

— PubChem BioAssay AID1963971 (Molecular Pharmacology Branch, DTP, NCI, 2024)
